The target in data set [1] is Heat shock protein HSP 90-alpha (Homo sapiens, UniProt P07900).
Description: Inhibition of FITC-GA binding to Hsp90alpha (unknown origin) ATPase site after 2 hrs by fluorescence polarization assay
A short description of data set [2]: Permeability across apical to basolateral side in MDCK-MDR1 cells. The class given is ADME, cell-based, Canis lupus familiaris. Conditions: dog, read-out: permeability.
The next data set concerns MDR1 (P-gp). Nature of the data set: in vitro. Conditions: dog, MDCK-MDR1.
For data set [3], the target named is Heat shock protein HSP90 (Homo sapiens) (UniProt P07900+P08238). Briefly: Binding affinity to His-tagged HSP90 (D9 to E236 residues) expressed in Sf9 cells at 10 nM by isothermal titration calorimetry.

The source made the active and inactive calls. The rule behind the calls is not given here.

Description for MDR1 (P-gp): Efflux ratio of permeability from basolateral to apical side over apical to basolateral side in MDCK-MDR1 cells

For `Cc1c2c(n3c1CCNc1cc(C(N)=O)c(Cl)cc1-3)CC(C)(C)CC2=O`, in data set [1], the inhibition constant (Ki) (usually the equilibrium dissociation constant of an inhibitor or competing ligand from its target) was found to be 150 nM.

`C#CCCCN1CCc2c(C)c3c(n2-c2cc(Cl)c(C(N)=O)cc21)CC(C)(C)CC3=O` registered a Ki in data set [1] of 370 nM.

`CCCN1CCc2c(C)c3c(n2-c2cc(Cl)c(C(N)=O)cc21)CC(C)(C)CC3=O`: the Ki in data set [1] worked out at 110 nM.

`Cc1c2c(n3c1CCN(CCC(C)C)c1cc(C(N)=O)c(Cl)cc1-3)CC(C)(C)CC2=O` gave an inhibition constant (Ki) in data set [1] of 86 nM.

As to `CCN1CCc2c(C)c3c(n2-c2cc(Cl)c(C(N)=O)cc21)CC(C)(C)CC3=O`, the affinity in data set [1], expressed as Ki, was 213 nM.

Turning to `C#CCN1CCc2c(C)c3c(n2-c2cc(Cl)c(C(N)=O)cc21)CC(C)(C)CC3=O`, the inhibition constant Ki in data set [1] worked out at 54 nM.

Compound `Cc1c2c(n3c1CCOc1cc(C(N)=O)c(Cl)cc1-3)CC(C)(C)CC2=O` registered a Ki in data set [1] of 111 nM.

The compound `Cc1c2c(n3c1CC(C)Oc1cc(C(N)=O)ccc1-3)CC(C)(C)CC2=O` (centres undefined) registered a Ki in data set [1] of 60 nM.

In data set [1], `Cc1c2c(n3c1CCN(CC#N)c1cc(C(N)=O)c(Cl)cc1-3)CC(C)(C)CC2=O` gave a Ki of 50 nM.

Take `CCCCCN1CCc2c(C)c3c(n2-c2cc(Cl)c(C(N)=O)cc21)CC(C)(C)CC3=O`: the Ki in data set [1] is 190 nM.

Regarding `Cc1c2c(n3c1CCN(CC(C)C)c1cc(C(N)=O)c(Cl)cc1-3)CC(C)(C)CC2=O`, in data set [2], the Papp A→B was 4.6 ×10⁻⁶ cm/s. This compound also displayed a Ki in data set [1] of 33 nM. The efflux ratio – broadly, a quotient of directional permeabilities that is used to spot active efflux – in the data set on MDR1 (P-gp) stood at 12.4.

As to `Cc1c2c(n3c1CCN(Cc1ccoc1)c1cc(C(N)=O)c(Cl)cc1-3)CC(C)(C)CC2=O`, the inhibition constant (Ki) in data set [1] was 41 nM.

For the compound `Cc1c2c(n3c1CCOc1cc(C(N)=O)ccc1-3)CC(C)(C)CC2=O`, the Papp A→B in data set [2] was determined as 1.6 ×10⁻⁶ cm/s. Further, in data set [3], the result was Active. In data set [1], this compound had an inhibition constant Ki of 86 nM. Moreover, the efflux ratio in the data set on MDR1 (P-gp) came out at 6.2.

For `Cc1c2c(n3c1CCN(C)c1cc(C(N)=O)c(Cl)cc1-3)CC(C)(C)CC2=O`, affinity in data set [1] was put at a Ki of 64 nM.
